In assay [1] the test system is RBL-2H3 cells. Put plainly: antigen (DNP-BSA)-induced degranulation β-hexosaminidase release assay. As to conditions: Rattus norvegicus. It counts as cell-based. The method, then: (§1) Cell culture: The mucosal mast cell-derived rat basophilic leukemia (RBL-2H3) cell line was purchased from the Bioresource Collection and Research Center (Hsin-Chu, Taiwan). Cells were grown in DMEM medium supplemented with 10% FBS and 100 U/mL penicillin plus 100 μg/mL streptomycin. Cells were cultured in 10 cm cell culture dishes at 37° C. in a humidified chamber with 5% CO2 in air.
(§2) Degranulation β-hexosaminidase assay induced by A23187 or antigen: The degree of A23187- and antigen-induced degranulation in RBL-2H3 cells was determined by a β-hexosaminidase release assay as described previously (Chen et al., J. Nat. Prod., 72, 950-953, 2009; Matsuda et al., Bioorg. Med. Chem., 12, 5891-5898, 2004) with following modifications. RBL-2H3 cells were seeded in a 96-well plate (2×10^4 cells/well) for A23187-induced and in 48-well plate (3×10^4 cells/well) for antigen-induced experiment. Cells were treated with various concentrations of the samples for 20 h. Dexamethasone (10 nM) was used as a positive control. The cells for the antigen-induced experiment were first sensitized with anti-DNP IgE (5 μg/mL) for at least 2 h. […] Absorbance was measured at 405 nm on a microplate reader (Multiskan Ascent, Thermo Scientific). The inhibition percentage of β-hexosaminidase release was calculated as the percentage of control value (untreated stimulated cells). […]

For assay [2], the system named is RBL-2H3 cells. The experiment in a line: A23187-induced degranulation β-hexosaminidase release assay. It counts as cell-based. Conditions: Rattus norvegicus, A23187 1 μM. Here is the method: as §1, §2

pIC50: −log10 of the molar value.

Data on one molecule can be found in US10335445B2, “Compositions and methods of antiallergic phorbol ester and phorbol derivatives as the main active ingredients from the seeds of aquilaria malaccensis” (WE-WIN APPLIED BIO-TECH CO., LTD., priority 2016, dated 2019).

By pIC50 is commonly meant the negative decadic logarithm of the IC50, by convention in mol/L. A lower pIC50 goes with a high IC50. With `CCCCCCC/C=C/C=C/C=C\C(=O)O[C@@H]1[C@@H](C)[C@@]2(O)[C@@H](C=C(CO)C[C@]3(O)C(=O)C(C)=C[C@@H]23)[C@@H]2C(C)(C)[C@]12OC(C)=O` [phorbol ester I, 12-O-(2Z,4E,6E)-tetradeca-2,4,6-trienoylphorbol-13-acetate], the results for the pIC50 with RBL-2H3 cells [1] and with RBL-2H3 cells [2] were 7.96 and 8.77, respectively.
